{"source": "patent US8540967B2", "about": "“Porphyrazine optical and dual optical/MR contrast and therapeutic agents” (Hoffman/Barrett, L.L.C., priority 2008, dated 2013)", "key": {"[1]": {"tested_on": "WI38 VA13 non-tumorigenic cells", "assay": "MTT assay, non-tumorigenic cells", "format": "cell-based", "details": "50 μM", "description": "(§1) The MTT test was performed using the procedure disclosed in S. Lee et al., Metal-Based Drugs (2008), pages 391-418."}, "[2]": {"tested_on": "WI38 VA13 non-tumorigenic cells", "assay": "Confocal NIR fluorescence microscopy of cellular uptake, non-tumorigenic cells", "format": "cell-based", "details": "confocal images; 50 μM", "description": "(§2) Cellular uptake monitored by confocal fluorescence microscopy is dependent on the pz's overall amphiphilicity, and qualitative analysis indicates preferential uptake into tumor cells (e.g., A549) over non-tumorigenic cells (e.g., WI38 VA13).\nas §1\nTherefore, compound 270, a pz having a single appended Gd^3+, was synthesized."}, "[3]": {"tested_on": "A549 lung carcinoma cells", "assay": "Confocal NIR fluorescence microscopy of cellular uptake, tumor cells", "format": "cell-based", "details": "confocal images; compound 247: 50 μM, 24 hr stain", "description": "as §2, §1"}, "[4]": {"tested_on": "PC3-EGFP (human prostate tumor cells stably expressing GFP) tibia tumors", "assay": "Biodistribution by NIR fluorescence imaging in mice with tibia tumors", "format": "in vivo, mouse", "description": "In one experiment, male FVB/n5 Rag-1−/− mice were injected with […] PC3-EGFP (human prostate tumor cells stably expressing GFP) in the tibia four weeks prior to imaging with pzs. Prior to imaging, the mice were anesthetized with 4% isoflurane and injected with 20 nmol of compound 247 (150 μL, 7.5% DMSO) intravenously via the tail vein. Fluorescent images were acquired immediately and after 4, 24, and 42 hours. […] GFP images were acquired using excitation wavelengths of 465 nm and fluorescence was detected at 535 nm. X-ray images were acquired for anatomical co-registration.\nThe mice subsequently were euthanized, legs were excised, and images were acquired without the surrounding skin and muscle."}, "A549 tumor cells": {"tested_on": "A549 tumor cells", "assay": "MTT assay, tumor cells", "format": "cell-based", "details": "50 μM", "description": "as §1"}, "[5]": {"tested_on": "A549 lung carcinoma cells", "assay": "Time course studies of pz accumulation and cell viability", "format": "cell-based", "description": "Time course studies also were performed using compounds 241, 243, 244, 246, 247, 249, 254, and 255 using A549 lung carcinoma cells and W138 VA13 non-tumorigenic cells. The studies confirmed accumulation of a present pz in tumor cells and a decrease in tumor cell viability."}, "[6]": {"tested_on": "MDA-MB-231-RFP subcutaneous tumors", "assay": "NIR fluorescence imaging of subcutaneous tumors in female SCID mice", "format": "in vivo, mouse", "source_text": "In a second experiment to verify that compound 247 robustly and reproducibly localizes in tumors of more than one tissue origin, female SCID mice were subcutaneously injected with MDA-MB-231-RFP cells stably expressing Red Fluorescent Protein (RFP). This approach provides excellent confirming information because (a) palpable subcutaneous tumors are easily identified prior to imaging as opposed to bone tumors which are difficult to detect non-invasively; (b) RFP-expressing tumors are visible through the skin as opposed to GFP tumors, which require removal of skin prior to imaging; (c) pz localization in the tumor is visible during non-invasive whole animal imaging; and (d) tumors are easily harvested, fixed, and processed for histochemical and biochemical analyses. Five mice were dosed with 20 nmol of compound 247 in 7.5% DMSO, administered intravenously. The […] wavelength used for RFP excitation was 535 nm with emission detected using a 565-615 nm bandpass filter. Compound 247 was excited using a 625 nm bandpass and emission detected at 700 nm. […] Therefore, there is no penetration of undesired signal during imaging. Images were acquired for RFP, as well as pz fluorescence, after 5, 24, 32 and 48 hours. […] With this remarkable contrast, compound 247 therefore acts as a ‘turn-on’ NIR-fluorescence tumor imager. At the conclusion of the 48 hour experiment, the tumors were excised and processed for antibody staining. Slices were stained for nuclei (DAPI) to determine the localization of pzs within heterogeneous 3-dimensional tumors. […] The important benefit of having the RFP and pz survive tissue processing is noted."}, "[7]": {"assay": "Relaxivity (r1) of Gd-pz conjugates", "format": "physicochemical", "description": "Dual-mode contrast agents were generated by coupling pz optical agents with gadolinium-based (Gd^3+) MR agents in order to permit co-registration of optical and MR image data. The synthetic versatility of the present pz structure allows a variety of strategies for attaching multiple MR imaging agents, for example, Gd^3+ chelates, to the pz structure. […] The relaxivity of a Gd^3+ chelate attached to a pz ranges from about 10 to about 14 mM-1s-1/Gd (Table 1).\nIn the preparation of Gd-pzs, ‘click’ chemistry was used to append 4 and 8 Gd^3+ chelates to an M[pz(A2; B2)] pz, leading to the Gd8-Mpz conjugate (M=Zn, Cu) shown above, and analogous Gd-4-Mpz conjugates having one chelate per pz ‘arm’. […] This is significant because the higher the observed relaxivity of the conjugate, the greater its efficacy as an in vivo MR contrast agent. Importantly, these conjugates are suitable as dual-mode contrast agents because the presence of as many as eight Gd agents has no significant influence on the pz luminescence for the M=Zn complex. In addition, the pz-Gd conjugates are water soluble and can be administered to rodents without the addition of DMSO."}}}
{"smiles": "CO[C@]1(C)Oc2c(c3nc4nc(nc5[nH]c(nc6nc(nc2[nH]3)-c2c(OC(C)C)ccc(OC(C)C)c2-6)c2c5O[C@@](C)(OC)[C@](C)(OC)O2)-c2c(OC(C)C)ccc(OC(C)C)c2-4)O[C@@]1(C)OC", "note": "[Compound 247]", "values": [{"measurement": "Toxicity to non-tumorigenic cells (MTT)", "setting": "[1]", "result": "non-toxic"}, {"measurement": "Uptake into WI38 VA13 cells (NIR fluorescence)", "setting": "[2]", "result": "lesser uptake"}, {"measurement": "Uptake/accumulation in A549 lung carcinoma cells (NIR fluorescence)", "setting": "[3]", "result": "excellent uptake"}, {"measurement": "pz fluorescence location after 4 hours", "setting": "[4]; 20 nmol i.v. tail vein, 4 hours", "result": "seen in the liver"}, {"measurement": "pz fluorescence location after 24 hours", "setting": "[4]; 20 nmol i.v. tail vein, 24 hours", "result": "highly localized in the mouse tibia tumors"}, {"measurement": "Red fluorescence location in excised legs", "setting": "[4]; 20 nmol, excised legs without skin and muscle, overlay with GFP", "result": "localized in the tumors"}, {"measurement": "Retention in tumor-free tibia", "setting": "[4]; mouse 3 without tumor", "result": "not non-specifically retained in the bones"}, {"measurement": "Toxicity to tumor cells (MTT)", "setting": "A549 tumor cells", "result": "mildly toxic"}, {"measurement": "Accumulation of pz in tumor cells", "setting": "[5]", "result": "accumulation"}, {"measurement": "Tumor cell viability", "setting": "[5]", "result": "decrease"}, {"measurement": "Time until pz fluorescence detectable in tumor", "setting": "[6]; 20 nmol i.v. in 7.5% DMSO", "result": "≤ 5", "unit": "h"}, {"measurement": "pz fluorescence intensity in tumor over time", "setting": "[6]; 20 nmol i.v., over the 48 hour experiment", "result": "increased dramatically"}, {"measurement": "pz fluorescence in other organs or tissues", "setting": "[6]; 20 nmol i.v., up to 48 hours", "result": "no pz fluorescence in other mouse organs or tissues"}, {"measurement": "Accumulation in MDA-231 tumors in vivo", "setting": "[6]; 20 nmol tail vein, 5 to 48 hours", "result": "accumulates over time"}, {"measurement": "Localization within excised tumor sections", "setting": "[6]; tumors excised at 48 hours, DAPI-stained slices", "result": "precise colocalization of compound 247 with the tumor cytosol"}]}
{"smiles": "O=C([O-])CN1CCN(CC(=O)[O-])CCN(CC(=O)O)CCN(CC(=O)[O-])CC1.[Gd+3]", "note": "[Gd-DOTA, gadolinium tetrazacyclododecanetetraacetic acid]", "values": [{"measurement": "Relaxivity r1/Gd", "setting": "[7]; per Gd", "result": 3.2, "unit": "mM⁻¹ s⁻¹"}, {"measurement": "Relaxivity r1 (molecular relaxivity)", "setting": "[7]; per molecule", "result": 3.2, "unit": "mM⁻¹ s⁻¹"}]}
